Experiments:
[1] = test system: experimentally provoked fever; test: Antipyretic activity (experimentally provoked fever); assay type: in vivo; parameters: unit not given here; conditions: 25 mg./kg. p.o.
Text: Besides their antiphlogistic activities, some of the benzo(a)quinolizidine derivatives exert antipyretic effects as well. On the basis of the tests performed on experimentally provoked fever, the antipyretic activities of the compounds according to the invention surpass the effect of amidazophenum.

Acute toxicity tests = assay type: in vivo; conditions: rat, in vivo, po; rats, Litchfield-Wildoxon method
Method: The acute toxicity values of the compounds were determined on rats, after oral administration. The LD50 values were calculated according to the Litchfield-Wildoxon method.

central nervious system = test: Narcosis potentiating effect; assay type: in vivo; conditions: 20 mg./kg. p.o.
kaolin-induced oedema = test: Inhibition of kaolin-induced oedema; assay type: in vivo; conditions: 100 mg./kg. p.o., 2 hours
Method: (§1) Inhibition of Kaolin- and carrageenin-induced oedema
(§2) The tests were carried out on groups each consisting of at least 10 animals. The percentage inhibition of oedema, in relation to the untreated controls, was determined for each of the animals, and the average values were calculated.

[2] = test system: carrageenin-induced oedema; test: Inhibition of carrageenin-induced oedema; assay type: in vivo; conditions: 100 mg./kg. p.o., 1.5 hours
Method: as §1, §2

Cotton granuloma = Cotton granuloma test; assay type: in vivo; conditions: 100 mg./kg.
[3] = Determination of ulcer index

For `Cc1c(N(C)C)c(=O)n(-c2ccccc2)n1C` [Amidazophenum], the “Variation of body temperature” value ([1]; 1 hour after administration) was -1.17, the “Variation of body temperature” value ([1]; 2 hours after administration) was -0.94 and the “Variation of body temperature” value ([1]; 3 hours after administration) was -0.95.

For `CC(=O)Oc1ccccc1C(=O)O` [Aspirin, reference compound], the LD50 (Acute toxicity tests) was 1700 mg/kg.

For `CCCC(C)(COC(N)=O)COC(N)=O` [Meprobamate, reference compound], the “Prolongation of the sleep period in relation to the untreated controls, %” value (central nervious system) was 110.2%.

In the case of `O=C(O)c1ccccc1O` [Na-salicylate, reference compound], the “Inhibition of kaolin-induced oedema 2 hours after administration” value (kaolin-induced oedema) is reported as 10.5%, the “Inhibition of carrageenin-induced oedema 1.5 hours after administration” value [2] is reported as 16.2% and the “Effect, % (cotton granuloma test)” value (Cotton granuloma) is reported as 25.5%. For the same molecule, the Erosion ([3]; female) was 3/10, the Ulcer ([3]; female) was 2/10 and the Erosion ([3]; male) was 1/10. The Ulcer ([3]; male) was 4/10.

— patent US4102886A, “Process for the preparation of benzo(a)quinolizidine derivatives” (priority 1974, dated 1978)
